Source: ChEMBL document CHEMBL3792309, “Seeking potent anti-tubercular agents: Design, synthesis, anti-tubercular activity and docking study of various ((triazoles/indole)-piperazin-1-yl/1,4-diazepan-1-yl)benzo[d]isoxazole derivatives” (Bioorg Med Chem Lett, 2016)
Values after ≈ are worked out from the molar mass of the structure shown.

Key:
[1] = test system: Mycobacterium tuberculosis; assay: Antimicrobial activity against Mycobacterium tuberculosis H37Rv by classical test tube method; type: functional
[2] = test system: Mycobacterium tuberculosis; assay: Antimicrobial activity against p-aminosalicylic acid/isonicotinic acid hydrazide/etambutol/rifampicin sensitive Mycobacterium tuberculosis Spec. 192 by classical test tube method; type: functional
RAW264.7 = assay: Cytotoxicity against mouse RAW264.7 cells assessed as inhibition of cell viability after 72 hrs by CellTiter 96 non radioactive cell proliferation assay; type: cell-based; settings: RAW264.7, 72 h
[3] = Selectivity index, ratio of IC50 for mouse RAW264.7 cells to MIC for Mycobacterium tuberculosis H37Rv; type: toxicity; settings: read-out: Selectivity Index
[4] = Cytotoxicity against mouse RAW264.7 cells assessed as inhibition of cell viability at 113.07 uM after 72 hrs by CellTiter 96 non radioactive cell proliferation assay; type: cell-based
[5] = Cytotoxicity against mouse RAW264.7 cells assessed as inhibition of cell viability at 116.78 uM after 72 hrs by CellTiter 96 non radioactive cell proliferation assay; type: cell-based
[6] = Cytotoxicity against mouse RAW264.7 cells assessed as inhibition of cell viability at 96.13 uM after 72 hrs by CellTiter 96 non radioactive cell proliferation assay; type: cell-based
[7] = test system: Mycobacterium tuberculosis; assay: Antimicrobial activity against Mycobacterium tuberculosis H37Rv assessed as growth inhibition at 257.59 uM by classical test tube method; type: functional; settings: read-out: GI
[8] = Cytotoxicity against mouse RAW264.7 cells assessed as inhibition of cell viability at 98.8 uM after 72 hrs by CellTiter 96 non radioactive cell proliferation assay; type: cell-based

## C#CCN1CCN(c2noc3ccccc23)CC1
[1]
  MIC: > 200 µM
[2]
  MIC: > 200 µM

## Clc1ccc(-n2cc(CN3CCN(c4noc5cc(Cl)ccc45)CC3)nn2)cc1
[1]
  MIC: > 200 µM
[2]
  MIC: > 200 µM

## FC(F)(F)c1cccc(-n2cc(CN3CCCN(c4noc5ccccc45)CC3)nn2)c1
[1]
  MIC: 28.3 µM (≈ 12.5 µg/mL)
[2]
  MIC: 28.3 µM (≈ 12.5 µg/mL)
RAW264.7
  IC50: 178 µM
[3]
  selectivity ratio: 6.29
[4]
  inhibition at 72 h, 113.07 µM: 31.8%

## Clc1ccc2c(N3CCN(Cc4cn(-c5ccc(Br)cc5)nn4)CC3)noc2c1
[1]
  MIC: > 200 µM
[2]
  MIC: > 200 µM

## O=C(CCc1c[nH]c2ccccc12)N1CCN(c2noc3ccccc23)CC1
[1]
  MIC: > 200 µM
[2]
  MIC: > 200 µM

## COc1ccc(-n2cc(CN3CCN(c4noc5cc(Cl)ccc45)CC3)nn2)cc1
[1]
  MIC: 118 µM (≈ 50.1 µg/mL)
[2]
  MIC: 118 µM (≈ 50.1 µg/mL)

## COc1ccc(-n2cc(CN3CCCN(c4noc5ccccc45)CC3)nn2)cc1
[1]
  MIC: > 200 µM
[2]
  MIC: > 200 µM

## C#CCN1CCCN(c2noc3ccccc23)CC1
[1]
  MIC: 196 µM (≈ 50 µg/mL)
[2]
  MIC: 196 µM (≈ 50 µg/mL)

## NNC(=O)c1ccncc1 [ISONIAZID]
[1]
  MIC: 91.1 µM (≈ 12.5 µg/mL)
[2]
  MIC: 91.1 µM (≈ 12.5 µg/mL)

## CCc1ccc(-n2cc(CN3CCCN(c4noc5ccccc45)CC3)nn2)cc1
[1]
  MIC: > 200 µM
[2]
  MIC: > 200 µM

## Clc1ccc(-n2cc(CN3CCN(c4noc5ccccc45)CC3)nn2)cc1
[1]
  MIC: > 200 µM
[2]
  MIC: > 200 µM

## COc1ccc(-n2cc(CN3CCN(c4noc5ccccc45)CC3)nn2)cc1
[1]
  MIC: > 200 µM
[2]
  MIC: > 200 µM

## O=C(CCc1c[nH]c2ccccc12)N1CCCN(c2noc3ccccc23)CC1
[1]
  MIC: > 200 µM
[2]
  MIC: > 200 µM

## COc1cccc(-n2cc(CN3CCCN(c4noc5ccccc45)CC3)nn2)c1
[1]
  MIC: > 200 µM
[2]
  MIC: > 200 µM

## Fc1ccc(-n2cc(CN3CCCN(c4noc5ccccc45)CC3)nn2)cc1
[1]
  MIC: 127 µM (≈ 50 µg/mL)
[2]
  MIC: 127 µM (≈ 50 µg/mL)

## FC(F)(F)c1cccc(-n2cc(CN3CCN(c4noc5ccccc45)CC3)nn2)c1
[1]
  MIC: 29.2 µM (≈ 12.5 µg/mL)
[2]
  MIC: 29.2 µM (≈ 12.5 µg/mL)
[5]
  inhibition at 72 h, 116.78 µM: 19.2%
RAW264.7
  IC50: 305 µM
[3]
  selectivity ratio: 10.4

## Brc1ccc(-n2cc(CN3CCCN(c4noc5ccccc45)CC3)nn2)cc1
[1]
  MIC: > 200 µM
[2]
  MIC: > 200 µM

## O=[N+]([O-])c1ccc(-n2cc(CN3CCN(c4noc5ccccc45)CC3)nn2)cc1
[1]
  MIC: > 200 µM
[2]
  MIC: > 200 µM

## CCc1ccc(-n2cc(CN3CCN(c4noc5cc(Cl)ccc45)CC3)nn2)cc1
[1]
  MIC: > 200 µM
[2]
  MIC: > 200 µM

## Fc1ccc(-n2cc(CN3CCN(c4noc5ccccc45)CC3)nn2)cc1
[1]
  MIC: 132 µM (≈ 50 µg/mL)
[2]
  MIC: 132 µM (≈ 50 µg/mL)

## FC(F)(F)c1cc(-n2cc(CN3CCCN(c4noc5ccccc45)CC3)nn2)ccc1Br
[1]
  MIC: 24 µM (≈ 12.5 µg/mL)
[2]
  MIC: 24 µM (≈ 12.5 µg/mL)
RAW264.7
  IC50: 181 µM
[3]
  selectivity ratio: 7.54
[6]
  inhibition at 72 h, 96.13 µM: 26.5%

## O=C(CCc1c[nH]c2ccccc12)N1CCN(c2noc3cc(Cl)ccc23)CC1
[1]
  MIC: > 200 µM
[2]
  MIC: > 200 µM

## O=[N+]([O-])c1ccc(-n2cc(CN3CCN(c4noc5cc(Cl)ccc45)CC3)nn2)cc1
[1]
  MIC: > 200 µM
[2]
  MIC: > 200 µM

## CCc1ccc(-n2cc(CN3CCN(c4noc5ccccc45)CC3)nn2)cc1
[7]
  inhibition of growth at 257.59 µM: 99%
[1]
  MIC: > 200 µM
[2]
  MIC: > 200 µM

## Clc1cccc(-n2cc(CN3CCN(c4noc5ccccc45)CC3)nn2)c1
[1]
  MIC: 63.4 µM (≈ 25 µg/mL)
[2]
  MIC: 63.4 µM (≈ 25 µg/mL)

## Clc1ccc(-n2cc(CN3CCCN(c4noc5ccccc45)CC3)nn2)cc1
[1]
  MIC: > 200 µM
[2]
  MIC: > 200 µM

## O=C(CCCc1c[nH]c2ccccc12)N1CCN(c2noc3ccccc23)CC1
[1]
  MIC: > 200 µM
[2]
  MIC: > 200 µM

## Brc1ccc(-n2cc(CN3CCN(c4noc5ccccc45)CC3)nn2)cc1
[1]
  MIC: > 200 µM
[2]
  MIC: > 200 µM

## O=C(CCCc1c[nH]c2ccccc12)N1CCN(c2noc3cc(Cl)ccc23)CC1
[1]
  MIC: > 200 µM
[2]
  MIC: > 200 µM

## C#CCN1CCN(c2noc3cc(Cl)ccc23)CC1
[1]
  MIC: 182 µM (≈ 50.1 µg/mL)
[2]
  MIC: 182 µM (≈ 50.1 µg/mL)

## O=C(Cc1c[nH]c2ccccc12)N1CCCN(c2noc3ccccc23)CC1
[1]
  MIC: 134 µM (≈ 50 µg/mL)
[2]
  MIC: 134 µM (≈ 50 µg/mL)

## O=[N+]([O-])c1ccc(-n2cc(CN3CCCN(c4noc5ccccc45)CC3)nn2)cc1
[1]
  MIC: > 200 µM
[2]
  MIC: > 200 µM

## O=C(Cc1c[nH]c2ccccc12)N1CCN(c2noc3cc(Cl)ccc23)CC1
[1]
  MIC: 127 µM (≈ 50.1 µg/mL)
[2]
  MIC: 127 µM (≈ 50.1 µg/mL)

## O=C(CCCc1c[nH]c2ccccc12)N1CCCN(c2noc3ccccc23)CC1
[1]
  MIC: > 200 µM
[2]
  MIC: > 200 µM

## O=C(Cc1c[nH]c2ccccc12)N1CCN(c2noc3ccccc23)CC1
[1]
  MIC: > 200 µM
[2]
  MIC: > 200 µM

## FC(F)(F)c1cc(-n2cc(CN3CCN(c4noc5ccccc45)CC3)nn2)ccc1Br
[1]
  MIC: 6.16 µM (≈ 3.13 µg/mL)
[2]
  MIC: 6.16 µM (≈ 3.13 µg/mL)
RAW264.7
  IC50: 223 µM
[3]
  selectivity ratio: 36.1
[8]
  inhibition at 72 h, 98.8 µM: 22.2%

## Fc1ccc(-n2cc(CN3CCN(c4noc5cc(Cl)ccc45)CC3)nn2)cc1
[1]
  MIC: 121 µM (≈ 50.1 µg/mL)
[2]
  MIC: 121 µM (≈ 50.1 µg/mL)

## COc1cccc(-n2cc(CN3CCN(c4noc5ccccc45)CC3)nn2)c1
[1]
  MIC: 128 µM (≈ 50 µg/mL)
[2]
  MIC: 128 µM (≈ 50 µg/mL)

## Clc1cccc(-n2cc(CN3CCCN(c4noc5ccccc45)CC3)nn2)c1
[1]
  MIC: 122 µM (≈ 50.1 µg/mL)
[2]
  MIC: 122 µM (≈ 50.1 µg/mL)
